In patent US20100292175A1, “USE OF HYDROXYFLAVAN DERIVATIVES FOR TASTE MODIFICATION” (Leibniz-Institut fur Pflanzenbiochemie, priority 2009, published 2010):

Tests used:
Assay type in all cases: in vivo
[1] = Bitter reduction of a bitter substance solution (caffeine), panel of experts; details: for Bitter sensation (1-10) Sample (caffeine + substance): grading 1 [not bitter] to 10 [extremely bitter]
From the text: To quantify the reduction (i.e. the masking or reduction) of the bitter sensation in a sample, the bitterness of a solution containing 500 ppm of caffeine was compared by a panel of experts in each case with a sample which contained 500 ppm of caffeine and additionally 50 ppm or 100 ppm of a substance to be assessed (in respect of the bitter-reduction ability) (grading: 1 [not bitter] to 10 [extremely bitter]).
For the evaluation, i.e. the calculation of the reduction (in %) of the bitter sensation, the mean values of the assessments by the panel of experts of the caffeine solution and the sample, to be compared, containing caffeine and a substance to be assessed were used in each case. In this respect, 2,4-dihydroxybenzoic acid (2,4-DHB) was used as the comparison (reference) according to U.S. Pat. No. 5,643,941.

[2] = Enhancement of the sweet sensation of a sugar solution, Comparative Test 1, panel of experts; details: for Sweet sensation (1-10) Sample (sucrose + substance): grading 1 [not sweet] to 10 [extremely sweet]; for synergistic enhancement of the sweet taste of a sweet-tasting substance: according to our own experiments
From the text: To quantify the enhancement of the sweet sensation, the sweetness of a 5% sucrose solution was compared by a panel of experts in each case with a sample which contained 5% of sucrose as well as 50 ppm or 100 ppm of a compound of formula (I) to be used according to the invention (grading: 1 [not sweet] to 10 [extremely sweet]).
For the evaluation, i.e. the calculation of the enhancement (in %) of the sweet sensation, the mean values of the assessments by the panel of experts of the sucrose solution and the sample, to be compared, containing sucrose and a compound of formula (I) were used in each case.

[3] = Comparative Test 2: inherent sweetness (sucrose equivalence) in water, panel of experts
Description: The inherent sweetness of compound 2 from Example 1, which was dissolved in water in a pure form in different concentrations (0.0025 or 0.0050% by weight in water) was determined by a panel of experts (panelists) using a series of comparisons of different sucrose concentrations in water (0; 0.25; 0.5; 0.75; 1; 1.5; 2; 3; 4 and 5% by weight sucrose in water).
(§1) The panelists were asked to test each solution of compound 2 in water against the sucrose series and to grade them according to their degree of sweetness (sucrose equivalent). It was possible to determine the inherent sweetness of compound 2 for the above-mentioned concentrations from the results provided by the panelists. In addition to the sucrose equivalence in water (i.e. without sucrose), the sucrose equivalence in a 5% sucrose solution was also determined.

[4] = Comparative Test 2: sucrose equivalence in a 5% sucrose solution, panel of experts; details: for Sucrose equivalence in a 5% sucrose solution, Calculation (5 + x) %: purely additive calculation; for synergy or synergistic additional effect: determined vs calculated sucrose equivalence
Description: as §1
It was possible to establish a clear synergistic sweetness enhancement even at a low concentration, not sweet per se, of approximately 25 ppm of compound 2 (from Example 1). From a purely calculational point of view, it was to be expected that a 5% sucrose solution (i.e. a sucrose solution which corresponds in sensory manner by definition to 5% sucrose equivalents) which contains 25 ppm or 50 ppm of compound 2 (from Example 1) produced a sweetness of approximately 5.84 or 6.45 sucrose equivalents by a purely additive effect of the inherent sweetness of compound 2 (see the determined sucrose equivalence in water). However, the sensory assessment of such a 5% sucrose solution with 25 ppm or 50 ppm of compound 2 (from Example 1) by the panelists produced an averaged sucrose equivalence of 6.8% or 8.2%. Considering the values to be expected from a purely calculational point of view, this corresponds to a synergy or a synergistic additional effect of approximately 17% or 27%.

[5] = 50 ppm substance + 500 ppm caffeine vs 500 ppm caffeine solution
[6] = 50 ppm substance + 500 ppm caffeine
[7] = 50 ppm substance + 5% sucrose vs 5% sucrose solution

| SMILES | Reduction of the bitter sensation [1, 5] | Bitter sensation (1-10) Sample (caffeine + substance) [1, 6] | Enhancement of the sweet sensation [2, 7] | Sweet sensation (1-10) Sample (sucrose + substance) ([2]; 50 ppm substance + 5% sucrose) | other results |
| --- | --- | --- | --- | --- | --- |
| COc1ccc(C2CCc3ccc(O)cc3O2)cc1O (racemic) [compound 2, 3′,7-dihydroxy-4′-methoxyflavan] | 27% | 3.9 ± 1.9 | 57% | 8.1 ± 1.3 | synergistic enhancement of the sweet taste of a sweet-tasting substance [2]: particularly strong synergistic enhancement; Determination of the sucrose equivalence in water (without sucrose) ([3]; 0.0025 % by weight in water): 0.84%; Determination of the sucrose equivalence in water (without sucrose) ([3]; 0.0050 % by weight in water): 1.45%; Sucrose equivalence in a 5% sucrose solution, Determination ([4]; 0.0025 % by weight (25 ppm) in 5% sucrose solution): 6.8%; Sucrose equivalence in a 5% sucrose solution, Calculation (5 + x) % ([4]; 0.0025 % by weight): 5.84%; Sucrose equivalence in a 5% sucrose solution, Determination ([4]; 0.0050 % by weight (50 ppm) in 5% sucrose solution): 8.2%; Sucrose equivalence in a 5% sucrose solution, Calculation (5 + x) % ([4]; 0.0050 % by weight): 6.45%; sweetness to be expected by a purely additive effect of the inherent sweetness ([4]; 25 ppm in 5% sucrose solution): approximately 5.84 sucrose equivalents; synergy or synergistic additional effect ([4]; 25 ppm in 5% sucrose solution): approximately 17%; sweetness to be expected by a purely additive effect of the inherent sweetness ([4]; 50 ppm in 5% sucrose solution): ~6.45 sucrose equivalents; synergy or synergistic additional effect ([4]; 50 ppm in 5% sucrose solution): ~27% |
| O=C(O)c1ccc(O)cc1O [2,4-DHB, 2,4-dihydroxybenzoic acid, reference compound] |  |  |  |  | Reduction of the bitter sensation ([1]; 100 ppm substance + 500 ppm caffeine vs 500 ppm caffeine solution): 3%; Bitter sensation (1-10) Sample (caffeine + substance) ([1]; 100 ppm substance + 500 ppm caffeine): 5.0 ± 1.0 |
| Oc1ccc(C2CCc3ccc(O)cc3O2)cc1 (stereo not shown) [compound 1, 4′,7-dihydroxyflavan] |  |  |  |  | Enhancement of the sweet sensation ([2]; 100 ppm substance + 5% sucrose vs 5% sucrose solution): 21%; Sweet sensation (1-10) Sample (sucrose + substance) ([2]; 100 ppm substance + 5% sucrose): 6.2 ± 1.5; synergistic enhancement of the sweet taste of a sweet-tasting substance [2]: particularly strong synergistic enhancement |
| COc1cc(C2CCc3ccc(O)cc3O2)ccc1O (stereo not shown) [compound 3, 4′,7-dihydroxy-3″-methoxyflavan] | 15% | 4.1 ± 1.4 |  |  |  |
| Oc1ccc(C2CCc3c(O)cc(O)cc3O2)cc1 (stereo not shown) [compound 14, 4′,5,7-trihydroxyflavan] | 26% | 3.8 ± 1.9 |  |  |  |
| COc1ccc(C2CCc3c(O)cc(O)cc3O2)cc1O (stereo not shown) [compound 15, 3′,5,7-trihydroxy-4′-methoxyflavan] | 15% | 3.8 ± 1.5 | 21% | 5.8 ± 1.6 |  |
| COc1cc(C2CCc3c(O)cc(O)cc3O2)ccc1O (stereo not shown) [compound 16, 4′,5,7-trihydroxy-3′-methoxyflavan] | 5% | 4.1 ± 2.0 |  |  |  |
| COc1ccc([C@@H]2CCc3ccc(O)cc3O2)cc1O [compound S-2, (2S)-3′,7-dihydroxy-4″-methoxyflavan] | 16% | 3.9 ± 1.5 | 36% | 7.8 ± 1.7 |  |
